Broadly, the Kd is the equilibrium constant for the complex coming apart. What is called inhibition is the change of the read-out against control, counted positive when it falls. What is called IC50 is the concentration needed to halve the response being measured.

For test [1], the target named is human RORγt ligand binding domain (RORγt LBD) (Homo sapiens (Human), UniProt P51449). The test can be described thus: RORγt ThermoFluor® assay (thermal shift binding). Conditions: read-out: ThermoFluor® Assay, Kd. The procedure, abridged: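 Binding was inferred from thermal stabilisation (ΔTm) of the E. coli-expressed RORγt LBD (0.065 mg/mL), monitored by 1,8-ANS (60 μM) emission at 500 nm during a 1 °C/min ramp. Buffer was Hepes 100 mM pH 7.0 with NaCl, GSH and Tween-20.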

A further test has as its target full-length human RORγt (Homo sapiens (Human), UniProt P51449). The experiment in a line: RORγt (full-length human) reporter assay, Conditions B or C. The conditions noted are these: for inhibition at 3 µM: at 3 μM compound concentration; for inhibition at 1 µM: at 1 μM compound concentration; for RORγt (FL) Reporter Assay B or C, % inhibition (value marked *): marked *: footnote not given. Format: cell-based. A digest of the protocol: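 Readout is dual luciferase: firefly (GAL4-driven) normalized to DMSO-only and saturating-reference controls, then to CMV-Renilla. Full-length human RORγt fused to GAL4-DBD was transiently expressed in HEK293T; compound exposure ran overnight (16-20 h) starting 4-6 h after transfection, final FBS 1.3%, DMSO 0.1%.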

Setting [2] is: read-out: RORγt (FL) Reporter Assay B or C, % inhibition.
The mark [3] stands for this setting: read-out: RORγt (FL) Reporter Assay B or C, IC50.
Where [4] appears, read: Conditions B or C, read-out: RORγt (FL) Reporter Assay B or C, IC50.

Structures are written as SMILES. Where two headings read alike, the source gives them in different places.

full-length human RORγt, sequence (P51449 other isoform, or with tags, fused parts or gaps): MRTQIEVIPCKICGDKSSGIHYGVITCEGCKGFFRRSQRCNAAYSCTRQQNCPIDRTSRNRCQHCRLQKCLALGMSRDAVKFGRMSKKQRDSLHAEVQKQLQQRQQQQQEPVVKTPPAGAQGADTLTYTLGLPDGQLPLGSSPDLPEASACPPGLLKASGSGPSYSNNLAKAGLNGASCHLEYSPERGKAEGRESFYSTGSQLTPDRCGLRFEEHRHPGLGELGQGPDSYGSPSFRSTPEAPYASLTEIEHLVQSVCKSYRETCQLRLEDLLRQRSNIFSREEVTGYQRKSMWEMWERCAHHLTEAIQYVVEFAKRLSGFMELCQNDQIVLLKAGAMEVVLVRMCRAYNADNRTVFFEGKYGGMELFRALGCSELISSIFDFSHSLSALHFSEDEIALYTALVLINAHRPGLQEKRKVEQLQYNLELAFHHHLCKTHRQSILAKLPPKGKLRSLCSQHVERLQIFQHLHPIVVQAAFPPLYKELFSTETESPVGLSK
human RORγt ligand binding domain (RORγt LBD), sequence (P51449 other isoform, or with tags, fused parts or gaps): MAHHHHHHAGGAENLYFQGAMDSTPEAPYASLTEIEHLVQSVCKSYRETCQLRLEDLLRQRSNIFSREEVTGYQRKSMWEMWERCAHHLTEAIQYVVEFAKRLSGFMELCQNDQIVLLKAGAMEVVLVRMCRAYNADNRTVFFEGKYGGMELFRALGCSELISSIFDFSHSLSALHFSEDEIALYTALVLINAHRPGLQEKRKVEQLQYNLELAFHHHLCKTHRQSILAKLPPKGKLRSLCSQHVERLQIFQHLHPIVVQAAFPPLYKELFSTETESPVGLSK

For the compound `O=C(N[C@H]1CC[C@@H]1O)c1nc(C(=O)N2C3CCC2CC3)c(-c2cnc(N[C@@H](C3CC3)C(F)(F)F)cc2C(F)F)s1` (relative stereo) [Example 444, 4-((1s,4s)-7-Azabicyclo[2.2.1]heptane-7-carbonyl)-5-(6-(((S)-1-cyclopropyl-2,2,2-trifluoroethyl)amino)-4-(difluoromethyl)pyridin-3-yl)-N-((1S*,2S*)-2-hydroxycyclobutyl)thiazole-2-carboxamide], the Kd in test [1] was 2.3 nM. The inhibition at 3 µM at full-length human RORγt (setting [2]) was 102%. Further, on full-length human RORγt (setting [3]), the IC50 worked out at 0.0045 µM.
On to `C[C@H]1CCCN1C(=O)c1nc(C(=O)NCC(C)(C)O)sc1-c1cnc(N[C@H]2CCCC2(F)F)cc1C(F)(F)F` (single isomer, unassigned) [Example 279, 5-(6-(((S*)-2,2-Difluorocyclopentyl)amino)-4-(trifluoromethyl)pyridin-3-yl)-N-(2-hydroxy-2-methylpropyl)-4-((S)-2-methylpyrrolidine-1-carbonyl)thiazole-2-carboxamide], for which the dissociation constant (Kd) in test [1] stood at 18 nM. The inhibition at 1 µM on full-length human RORγt (setting [2]) was 109%. The IC50 on full-length human RORγt (setting [3]) amounted to 0.062 µM.
For `C[C@H](Nc1cc(C(F)F)c(-c2sc(C(=O)N[C@H]3CCC[C@@H]3O)nc2C(=O)N2C3CCC2CC3)cn1)C(F)(F)F` [Example 293, 4-((1s,4s)-7-Azabicyclo[2.2.1]heptane-7-carbonyl)-5-(4-(difluoromethyl)-6-(((S)-1,1,1-trifluoropropan-2-yl)amino)pyridin-3-yl)-N-((1S,2S)-2-hydroxycyclopentyl)thiazole-2-carboxamide], the Kd in test [1] is 2 nM. Besides, half-maximal inhibition against full-length human RORγt (RORγt (FL) Reporter Assay B or C, IC50) (IC50) was put at 0.013 µM. In addition, on full-length human RORγt (setting [2]), the inhibition at 3 µM was found to be 94%.
Regarding `C[C@H](Nc1cc(C(F)F)c(-c2sc(C(=O)NCC(C)(C)O)nc2C(=O)N2CCC[C@@H]2C)cn1)C(C)(C)C` [Example 299, 5-(4-(Difluoromethyl)-6-(((S)-3,3-dimethylbutan-2-yl)amino)pyridin-3-yl)-N-(2-hydroxy-2-methylpropyl)-4-((S)-2-methylpyrrolidine-1-carbonyl)thiazole-2-carboxamide], in test [1], the Kd came to 0.91 nM. Moreover, on full-length human RORγt (setting [2]), the inhibition at 3 µM is 103%. For the same compound, the IC50 at full-length human RORγt (setting [3]) is 0.011 µM.
Consider `[2H]C([2H])([2H])C(O)(CNC(=O)c1nc(C(=O)N2CCC[C@@H]2C)c(-c2cnc(NC(C)(C)C)cc2C(F)(F)F)s1)C([2H])([2H])[2H]` [Example 180, (S)-5-(6-(tert-Butylamino)-4-(trifluoromethyl)pyridine-3-yl)-N-(2-hydroxy-2-(methyl-d3)propyl-3,3,3-d3)-4-(2-methylpyrrolidine-1-carbonyl)thiazole-2-carboxamide], for which the equilibrium dissociation constant (Kd) in test [1] is 1.8 nM. In addition, the “RORγt (FL) Reporter Assay B or C, % inhibition (value marked *)” value (“RORγt … % inhibition (value marked *)” for short) on full-length human RORγt (Conditions B or C) is listed as 113* %. On full-length human RORγt (setting [4]), the IC50 is 0.02 µM.
In the case of `CC[C@H](Nc1cc(C(F)F)c(-c2sc(C(=O)N[C@H]3COC[C@@H]3O)nc2C(=O)N2C3CCC2CC3)cn1)C(F)(F)F` [Example 209, 4-((1s,4s)-7-Azabicyclo[2.2.1]heptane-7-carbonyl)-5-(4-(difluoromethyl)-6-(((1S)-1-(trifluoromethyl)propyl)amino)-3-pyridyl)-N-((3S,4R)-4-hydroxytetrahydrofuran-3-yl]thiazole-2-carboxamide], in test [1], the Kd is 3.4 nM. Moreover, the “RORγt … % inhibition (value marked *)” value on full-length human RORγt (Conditions B or C) was 99* %. Moreover, the IC50 at full-length human RORγt (setting [4]) was found to be 0.046 µM.
As for `C[C@H](NC(=O)c1nc(C(=O)N2CCC[C@@H]2C)c(-c2cnc(NCC(C)(C)C)cc2C(F)F)s1)C(C)(C)O` [Example 344, 5-[4-(Difluoromethyl)-6-(2,2-dimethylpropylamino)-3-pyridyl]-N-[(1S)-2-hydroxy-1,2-dimethyl-propyl]-4-[(2S)-2-methylpyrrolidine-1-carbonyl]thiazole-2-carboxamide], in test [1], the Kd stood at 3.2 nM. In addition, the inhibition at 0.33 µM on full-length human RORγt (at 0.33 μM compound concentration, read-out: RORγt (FL) Reporter Assay B or C, % inhibition) was 53%. In addition, the IC50 on full-length human RORγt (setting [3]) came to 0.0053 µM.
Regarding `C[C@H](Nc1cc(C(F)F)c(-c2sc(C(=O)N[C@H]3COC[C@@H]3O)nc2C(=O)N2CC(F)(F)C[C@@H]2C)cn1)C(F)(F)F` [Example 190], the Kd in test [1] is 3.8 nM. Further, on full-length human RORγt (Conditions B or C), the “RORγt … % inhibition (value marked *)” value is reported as 104* %. The IC50 on full-length human RORγt (setting [4]) was 0.034 µM.
On to `CC[C@H](Nc1cc(C(F)F)c(-c2sc(C(=O)NCC(C)(C)O)nc2C(=O)N2C3CCC2CC3)cn1)C(F)(F)F` [Example 89, 4-((1s,4s)-7-Azabicyclo[2.2.1]heptane-7-carbonyl)-5-(4-(difluoromethyl)-6-(((S)-1,1,1-trifluorobutan-2-yl)amino)pyridin-3-yl)-N-(2-hydroxy-2-methylpropyl)thiazole-2-carboxamide], for which the equilibrium dissociation constant (Kd) in test [1] is 5.2 nM. In addition, on full-length human RORγt (Conditions B or C), the “RORγt … % inhibition (value marked *)” value was 100* %. The compound also registered a half-maximal inhibitory concentration (IC50) at full-length human RORγt (RORγt (FL) Reporter Assay B or C, IC50 (μM), Conditions B or C) of 0.024 µM.
Take `C[C@H]1CCCN1C(=O)c1nc(C(=O)N[C@H](C)C(C)(C)O)sc1-c1cnc(NCC(C)(C)C)cc1C(F)F` [Example 343, 5-[4-(Difluoromethyl)-6-(2,2-dimethylpropylamino)-3-pyridyl]-N-[(1R)-2-hydroxy-1,2-dimethyl-propyl]-4-[(2S)-2-methylpyrrolidine-1-carbonyl]thiazole-2-carboxamide]: in test [1], the Kd was 5.1 nM. Also, on full-length human RORγt (setting [2]), the inhibition at 3 µM is 98%. For the same compound, the IC50 at full-length human RORγt (setting [3]) was determined as 0.31 µM.
As for `C[C@H](Nc1cc(C(F)F)c(-c2sc(C(=O)N[C@H]3CC[C@H](O)C3)nc2C(=O)N2CCC[C@@H]2C)cn1)C(F)(F)F` [Example 288, 5-(4-(Difluoromethyl)-6-(((S)-1,1,1-trifluoropropan-2-yl)amino)pyridin-3-yl)-N-((1S,3S)-3-hydroxycyclopentyl)-4-((S)-2-methylpyrrolidine-1-carbonyl)thiazole-2-carboxamide], in test [1], the Kd worked out at 4.4 nM. For the same compound, the inhibition at 3 µM at full-length human RORγt (setting [2]) was 103%. The IC50 on full-length human RORγt (setting [3]) was 0.029 µM.
For `C[C@H]1CCCN1C(=O)c1nc(C(=O)N[C@H]2C[C@H](O)C2)sc1-c1cnc(NC2(C)CCC2)cc1C(F)F` [Example 323, 5-(4-(Difluoromethyl)-6-((1-methylcyclobutyl)amino)pyridin-3-yl)-N-((1r,3S)-3-hydroxycyclobutyl)-4-((S)-2-methylpyrrolidine-1-carbonyl)thiazole-2-carboxamide], the Kd in test [1] is 8.2 nM. Moreover, the inhibition at 1 µM on full-length human RORγt (setting [2]) was determined as 97%. Also, the IC50 on full-length human RORγt (setting [3]) stood at 0.15 µM.
As for `CC[C@H](Nc1cc(C(F)F)c(-c2sc(C(=O)NC3CCS(=O)(=O)CC3)nc2C(=O)N2CC(F)(F)C[C@@H]2C)cn1)C(F)(F)F` [Example 426, 4-[(2S)-4,4-Difluoro-2-methyl-pyrrolidine-1-carbonyl]-5-[4-(difluoromethyl)-6-[[(1S)-1-(trifluoromethyl)propyl]amino]-3-pyridyl]-N-(1,1-dioxothian-4-yl)thiazole-2-carboxamide], the Kd in test [1] turned out to be 0.37 nM. Besides, on full-length human RORγt (setting [2]), the inhibition at 3 µM was found to be 96%. Also, the IC50 at full-length human RORγt (setting [3]) turned out to be 0.079 µM.
For the compound `C[C@H]1CCCN1C(=O)c1nc(C(=O)NCC(O)C(F)(F)F)sc1-c1cnc(NC(C)(C)C)cc1C(F)(F)F` (stereo in doubt) [Example 352, 5-[6-(tert-Butylamino)-4-(trifluoromethyl)-3-pyridyl]-4-(2-methylpyrrolidine-1-carbonyl)-N-(3,3,3-trifluoro-2-hydroxy-propyl)thiazole-2-carboxamide], the Kd in test [1] came out at 1.1 nM. The inhibition at 3 µM on full-length human RORγt (setting [2]) was 103%. Moreover, the IC50 at full-length human RORγt (setting [3]) was 0.042 µM.
On the same counts, the results for `C[C@H]1CCCN1C(=O)c1nc(C(=O)NC2(CO)CCC2)sc1-c1cnc(NC(C)(C)C)cc1C(F)(F)F` [Example 262, 5-[6-(tert-Butylamino)-4-(trifluoromethyl)-3-pyridyl]-N-[1-(hydroxymethyl)cyclobutyl]-4-[(2S)-2-methylpyrrolidine-1-carbonyl]thiazole-2-carboxamide] are 1.6 nM, 104% and 0.02 µM.
On to `C[C@H](Nc1cc(C(F)(F)F)c(-c2sc(C(=O)NCC(C)(C)O)nc2C(=O)N2CCC(F)CC2)cn1)C1CC1` [Example 30, (S)-5-(6-((1-Cyclopropylethyl)amino)-4-(trifluoromethyl)pyridin-3-yl)-4-(4-fluoropiperidine-1-carbonyl)-N-(2-hydroxy-2-methylpropyl)thiazole-2-carboxamide], for which, in test [1], the equilibrium dissociation constant (Kd) turned out to be 2.8 nM. Further, the half-maximal inhibitory concentration (IC50) at full-length human RORγt (setting [4]) was found to be 0.02 µM. The inhibition at 6 µM at full-length human RORγt (read-out: RORγt (FL) Reporter Assay B or C, % inhibition @ 6 μM, Conditions B or C, @ 6 μM) was 104%.
Take `C[C@H](Nc1cc(C(F)F)c(-c2sc(C(=O)N[C@@H]3CC[C@H]3O)nc2C(=O)N2CCC[C@@H]2C)cn1)C(F)(F)F` (relative stereo) [Example 387, 5-(4-(Difluoromethyl)-6-(((S)-1,1,1-trifluoropropan-2-yl)amino)pyridin-3-yl)-N-(1R*,2R*)-2-hydroxycyclobutyl)-4-((S)-2-methylpyrrolidine-1-carbonyl)thiazole-2-carboxamide]: in test [1], the Kd turned out to be 9.9 nM. Also, at full-length human RORγt (setting [2]), the inhibition at 3 µM was found to be 102%. In addition, the IC50 on full-length human RORγt (setting [3]) stood at 0.13 µM.
